Assay results from patent publication US4006204A, “Phosphoric acid diesters” (priority 1975, dated 1977).
Where two headings read alike, the source gives them in different places.

Columns and labels:
[1] = tested on: croton oil-induced rat ear edema; test: Tonelli anti-inflammatory animal test, croton oil-induced rat ear edema; assay type: in vivo; settings: for % protection at 0.3% / % protection at 1.0% / % protection at 3.0%: croton oil rat ear edema; for potency in reducing edema produced by croton oil (conclusion in words): compared with hydrocortisone, summary of Table 4
Procedure: The following compounds were tested in the standard Tonelli anti-inflammatory animal test model for their effectiveness in preventing croton oil-induced rat ear edema.

prostaglandin receptor = test: Blocking of prostaglandin receptor activity, guinea pig ileum vs Prostaglandin E2; assay type: biochemical; settings: for prostaglandin receptor blocking activity (conclusion in words): summary of Table 1
Procedure: The following compounds were tested for their biological activity in blocking prostaglandin receptor activity. This test is useful in that many kinds of inflammation are at least partially prostaglandin mediated. Table 1 below tabulates the results.
^1 PGE2 : Guinea pig ileum IC50 vs Prostaglandin E2

prostaglandin synthetase = target: T1, prostaglandin synthetase (Bos taurus, UniProt O62664); test: Prostaglandin synthetase inhibition (procedure of Flower et al.); assay type: biochemical, bovine
T1 construct: enzyme source was bovine; from tissue; host or cells: bovine seminal vesicles
T1 sequence (O62664 25-600): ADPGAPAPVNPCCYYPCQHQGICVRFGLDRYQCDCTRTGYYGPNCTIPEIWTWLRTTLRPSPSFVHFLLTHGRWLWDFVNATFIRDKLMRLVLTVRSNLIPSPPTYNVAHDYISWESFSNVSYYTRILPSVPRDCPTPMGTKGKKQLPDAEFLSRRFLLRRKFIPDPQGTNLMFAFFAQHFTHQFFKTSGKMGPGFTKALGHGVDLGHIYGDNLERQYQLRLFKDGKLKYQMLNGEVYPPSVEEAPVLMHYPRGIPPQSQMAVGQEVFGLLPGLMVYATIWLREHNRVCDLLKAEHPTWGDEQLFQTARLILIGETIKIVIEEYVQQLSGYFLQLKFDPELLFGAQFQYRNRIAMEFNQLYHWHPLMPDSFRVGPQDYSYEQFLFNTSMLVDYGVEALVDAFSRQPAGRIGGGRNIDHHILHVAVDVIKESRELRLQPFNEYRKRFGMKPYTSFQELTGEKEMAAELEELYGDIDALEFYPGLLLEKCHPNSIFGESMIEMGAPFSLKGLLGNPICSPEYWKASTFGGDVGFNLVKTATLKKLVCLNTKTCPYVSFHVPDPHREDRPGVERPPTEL
Procedure: Compounds were tested for prostaglandin synthetase inhibition via the procedure of Flower et al. (Prostaglandins 4: 325, 1973).

[2] = tested on: mouse diarrhea induced by intraperitoneal prostaglandin E2; test: Prevention of mouse diarrhea induced by intraperitoneal prostaglandin E2 injection; assay type: in vivo; settings: for ED50: Mus musculus, ip, administered intraperitoneally
Procedure: Compounds 1 and 2 of Table 2 were tested for their effectiveness in preventing mouse diarrhea induced by intraperitoneal prostaglandin E2 injection. The data are summarized below in Table 5:
^1 dose administered i.p.

[3] = enzyme source bovine seminal vesicles

`CC(OP(=O)(O)Oc1ccccc1)c1ccc(C2CCCCC2)c(Cl)c1` (stereo not drawn) [Compound 1] was tested, and the “% protection at 0.3%” value [1] was 0.0%, the “% protection at 1.0%” value [1] was 23.4% and the “% protection at 3.0%” value [1] was 53.8%. The “potency in reducing edema produced by croton oil (conclusion in words)” value [1] was “approximately as potent as hydrocortisone”, the “prostaglandin receptor blocking activity (conclusion in words)” value (shortened to “prostaglandin receptor blocking activity”) (prostaglandin receptor) was “prostaglandin receptor blockers” and the IC50 (prostaglandin synthetase) was 18 µM. For the same compound, the “prostaglandin synthetase blocking (conclusion in words)” value (prostaglandin synthetase; compared with indomethacin, summary of Table 3) was “effective blocker of prostaglandin synthetase, comparable in effect to indomethacin”, the “% prevention of diarrhea” value ([2]; 30 Mg/kg i.p.) was 0% and the “% prevention of diarrhea” value ([2]; 60 Mg/kg i.p.) was 60%. The “% prevention of diarrhea” value ([2]; 100 Mg/kg i.p.) was 70% and the ED50 [2] was ~60 mg/kg.
With `CC(COP(=O)(O)Oc1ccccc1)c1ccc(C2CCCCC2)c(Cl)c1` (stereo not drawn) [Compound 2] the “% protection at 0.3%” value [1] was 15.9%, the “% protection at 1.0%” value [1] was 51.3% and the “% protection at 3.0%” value [1] was 65.4%. For the same compound, the “potency in reducing edema produced by croton oil (conclusion in words)” value [1] was “approximately as potent as hydrocortisone”, the “prostaglandin receptor blocking activity” value (prostaglandin receptor) was “prostaglandin receptor blockers” and the IC50 (prostaglandin synthetase) was 50 µM. The “% prevention of diarrhea” value ([2]; 30 Mg/kg i.p.) was 40%, the “% prevention of diarrhea” value ([2]; 60 Mg/kg i.p.) was 50% and the “% prevention of diarrhea” value ([2]; 100 Mg/kg i.p.) was 70%. For the same compound, the ED50 [2] was ~60 mg/kg.
`CC(C(=O)O)c1ccc(C2CCCCC2)c(Cl)c1` (stereo not drawn) [Compound 3] was tested, and the “Guinea pig ileum inhibition vs Prostaglandin E2” value (prostaglandin receptor; Guinea pig ileum, vs PGE2, at 30 × 10^^-6) was “No inhibition”, the “prostaglandin receptor blocking activity” value (prostaglandin receptor) was “weak or have no prostaglandin-blocking activity” and the IC50 (prostaglandin synthetase; enzyme source bovine seminal vesicles, read-out: ID50 vs Prostaglandin E2 (prostaglandin synthetase inhibition)) was 2 to 4 µM.
`CC(CO)c1ccc(C2CCCCC2)c(Cl)c1` (stereo not drawn) [Compound 4, reference compound] was tested, and the “prostaglandin receptor blocking activity” value (prostaglandin receptor) was “weak or have no prostaglandin-blocking activity” and the “prostaglandin synthetase inhibition at 50 μM” value (prostaglandin synthetase; [3]) was “no inhibition”.
`CC(O)c1ccc(C2CCCCC2)c(Cl)c1` (stereo not drawn) [Compound 5, reference compound] was tested, and the “prostaglandin synthetase inhibition at 50 μM” value (prostaglandin synthetase; [3]) was “insignificant”.
For `C[C@]12CCC(=O)C=C1CC[C@@H]1[C@@H]2[C@@H](O)C[C@@]2(C)[C@H]1CC[C@]2(O)C(=O)CO` [hydrocortisone, reference compound], the “% protection at 0.3%” value [1] was 13.8%, the “% protection at 1.0%” value [1] was 45.9% and the “% protection at 3.0%” value [1] was 68.7%.
